Results reported in US4533498A, “Compounds” (Beecham Group p.l.c., priority 1983, dated 1985).

Assays:
intragastric pressure = test: Increase in intragastric pressure (conscious restrained rats, gastric fistula); assay type: in vivo, rat; conditions: 40 minute period after administration, Student's t test vs spontaneous activity
Protocol: Intragastric pressure changes were recorded from previously starved conscious but restrained rats using a saline filled catheter inserted into the lumen of the stomach via a permanent gastric fistula. The catheter was connected to a physiological pressure transducer and pressure changes recorded on a hot wire pen recorder. In each animal a pre-dose period of 40 minutes was allowed to obtain a measure of spontaneous activity. An index of activity was obtained by measuring the average height of pressure waves during 10 minute periods. Values for 4 such periods were obtained during assessment of spontaneous activity and for a 40 minute period after administration of compound. Student's `t` test was applied to the difference in average values obtained for spontaneous and post compound activity.

vomiting response = test: Anti-emetic activity in the dog: inhibition of apomorphine-induced vomiting response; assay type: in vivo; conditions: s.c. 30 minutes prior to apomorphine HCl 0.1 mg/kg s.c.; for ED50: Canis lupus familiaris, sc
Protocol: Compounds were administered subcutaneously 30 minutes prior to administration of a standard dose of apormorphine HCl (0.1 mg/kg subcutaneously) and the vomiting response compared to that obtained when the same animals were dosed with apomorphine HCl and vehicle only. The ED50 value for inhibition of the vomiting response determined for compounds (17), (29) and (30) was 0.1 mg/kg, and for compound (19) 0.01 mg/kg s.c.

dopamine receptor = test: Dopamine receptor blocking activity in the central nervous system: inhibition of apomorphine induced climbing in the mouse; assay type: in vivo; conditions: apomorphine 1 mg/kg s.c.; for ED50 (inhibition of apomorphine induced climbing): scored at 10, 20 and 30 minutes; for inhibition of apomorphine induced climbing, result in words: printed beside ED50 10 mg/kg s.c.
Protocol: Compounds were tested for inhibition of apomorphine induced climbing in the mouse. The test is based on that described by Protais, P., Constantin, J. and Schwartz, J. C. (1976), Psychopharmacology, 50, 1-6.
Apomorphine 1 mg/kg s.c. induces mice to climb the wall of a wire cage (inverted food hopper--11×7.5×18 cm high). Mice acclimatised in their home cages in groups of 5 are placed under the hoppers immediately after the injection of apomorphine 1 mg/kg s.c. At 10, 20 and 30 minutes after injection climbing behaviour is scored. The mice are observed for 30 seconds and scored according to the position they spend the majority of time in, score 0--four paws on floor of cage; score 1--fore paws only on walls; score 2--all paws on wall of cage. The scores at all 3 times and for each mouse are summed and mice drug treated compared to mice receiving apomorphine only. A saline only treated group is also included and any score, generally >5% of maximum taken into account.

Row | Compound | index of activity (average height of pressure waves) post administration (intragastric pressure; 0.5 mg/kg s.c.) | ED50 (vomiting response) [mg/kg] | ED50 (inhibition of apomorphine induced climbing) (dopamine receptor) [mg/kg s.c.] | inhibition of apomorphine induced climbing, result in words (dopamine receptor) | index of activity (average height of pressure waves) post administration (intragastric pressure; 1.0 mg/kg s.c.) | ED50 value for inhibition of the vomiting response (vomiting response) [mg/kg]
1 | COc1cc(N)c(Cl)cc1C(=O)NC1CC2CCC1CN2C (racemic) [Compound 17, (±)-4-Amino-5-chloro-2-methoxy-N-(5-[2-methyl-2-azabicyclo[2,2,2]octyl]benzamide] | significantly increased the index of activity | 0.1 | 7.7 |  |  | 
2 | COc1cc(N)c(Cl)cc1C(=O)NC1CC2CCC1CN2C (racemic) [Compound 18, (±) 4-Amino-5-chloro-2-methoxy-N-(5-[2-methyl-2-azabicyclo[2,2,2]octyl]benzamide] | significantly increased the index of activity |  | 10 | inactive |  | 
3 | COc1cc(N)c(Cl)cc1C(=O)NC1CC2CCC1CN2Cc1ccccc1 (racemic) [Compound 19, (±)-4-Amino-5-chloro-2-methoxy-N-(5-[2-benzyl-2-azabicyclo[2,2,2]octyl]benzamide] |  | 0.01 | 0.36 |  | similarly active | 
4 | COc1cc(N)c(Cl)cc1C(=O)NC1CC2CCC1CN2Cc1ccccc1 (racemic) [Compound 20, (±) 4-Amino-5-chloro-2-methoxy-N-(5-[2-benzyl-2-azabicyclo[2,2,2]octyl])benzamide] | significantly increased the index of activity |  | 3.6 |  |  | 
5 | COc1cc(N)c(Cl)cc1C(=O)NC1CC2CC1CN2C (racemic) [Compound 26, (±) 4-amino-5-chloro-2-methoxy-N-[5-(2-methyl-2-azabicyclo(2.2.1)heptyl)]benzamide] | significantly increased the index of activity |  | 10 | inactive |  | 
6 | COc1cc(N)c(S(C)(=O)=O)cc1C(=O)NC1CC2CCC1CN2Cc1ccccc1 (stereo not shown) [Compound 29, 4-amino-2-methoxy-5-methylsulphonyl-N-[5-(2-benzyl-2-azabicyclo(2.2.2)octyl)]benzamide] |  | 0.1 |  |  |  | 
7 | COc1cc(N)c(S(C)(=O)=O)cc1C(=O)NC1CC2CCC1CN2Cc1ccccc1 (stereo not shown) [Compound 30, 4-amino-2-methoxy-5-methylsulphonyl-N-[5-(2-benzyl-2-azabicyclo(2.2.2)octyl)]benzamide] |  |  |  |  |  | 0.1
